One test deals with Fz7CRD-Fc. The test is classed as binding. The note with it: for S/N: ratio of signal for target protein over BSA background; for ELISA: spot phage ELISA signal, DCP displayed on M13 p8. For orientation: ELISA stands for enzyme-linked immunosorbent assay.
Another test has as its system PCSK9ΔCRD (PCSK9dCRD). The test is classed as binding, human. The note with it: for S/N: ratio of signal for target protein over BSA background; for ELISA: spot phage ELISA signal, DCP displayed on M13 p8.
For a further test, the system named is Notch2NRR. The experiment in a line: Spot phage ELISA, Notch2NRR. Type of test: binding, human. The note with it: for S/N: spot phage ELISA on Notch2NRR, signal-to-noise ratio of phage-displayed DCP clone; for ELISA: spot phage ELISA signal of phage-displayed DCP clone on Notch2NRR.
A further test relates to HtrA1. Type of test: binding, human. The note with it: ratio of signal for target protein over BSA background.

We go through 44 sequences from article PMC10977697 (PLOS ONE, 2024).

Where no end group is shown, it is not given here.

Take “GCGWWFKQWFCKQDSDCLAGCVCGPNGFCG (also: bicyclic or more (positions not given here)) [Fz7CRD-Fc EET I-II 19]”: in the test on Fz7CRD-Fc, the S/N worked out at 3.8 and the ELISA is 1.83.
As for “AFDCLGQCGRCDFHKLQCVYESYAHYQYCNSSCTR (also: bicyclic or more (positions not given here)) [PCSK9dCRD AVR9 54]”, in the test on PCSK9ΔCRD (PCSK9dCRD), the S/N came to 23.7 and the ELISA was 1.59.
In the case of “GPTQSHYGQCGGEGYWGRWICSGTTCQPYNTHFSQCLPGAS (disulfide (positions not given here)) [CBD 2]”, in the test with Notch2NRR, the S/N stood at 28.5 and the ELISA amounted to 3.05.
With “GPTQSVYGYCGGIGYSGPTVCASGTTCQVLFPGHSFCLPGAS (also: bicyclic or more (positions not given here)) [Fz7CRD-Fc CBD 23]”, in the test on Fz7CRD-Fc, the S/N was determined as 20.9 and the ELISA was determined as 2.78.
For “GPTQSAWGWCGGIGYSGPTVCASGTTCQVLSPYESYCLPGAS (also: bicyclic or more (positions not given here)) [Fz7CRD-Fc CBD 53]”, in that order: 4.3 and 0.32.
With “AFDCLGQCGRCDFHKLQCVWQTWQHYQYCNSSCTR (also: bicyclic or more (positions not given here)) [PCSK9dCRD AVR9 69]”, in the test on PCSK9ΔCRD (PCSK9dCRD), the S/N is 23.5 and the ELISA stood at 2.51.
With “GPTQSAFGECGGIGYSGPTVCASGTTCQVLSPYWSFCLPGAS (also: bicyclic or more (positions not given here)) [Fz7CRD-Fc CBD 15]”, in the test on Fz7CRD-Fc, the S/N was 38.4 and the ELISA is 2.76.
Turning to “AFDCLGQCGRCDFHKLQCVYQDWAHYVYCNSSCTR (also: bicyclic or more (positions not given here)) [PCSK9dCRD AVR9 44]”, in the test with PCSK9ΔCRD (PCSK9dCRD), the S/N amounted to 27.7 and the ELISA worked out at 2.19.
For “AFDCLGQCGRCDFHKLQCVYTSWESYQYCNSSCTR (also: bicyclic or more (positions not given here)) [PCSK9dCRD AVR9 16]”, in that order: 19.6 and 1.80.
As for “GCVHVIREWWCKQDSDSSWFVCGPNGFCG [Fz7CRD-Fc EET I-II 17]”, in the test on Fz7CRD-Fc, the S/N is 26.4 and the ELISA is given as 2.69.
For “GPTQSAFGECGGIGYSGPTVCASGTTCQVLSPMFSFCLPGAS (also: bicyclic or more (positions not given here)) [Fz7CRD-Fc CBD 57]”, in the test on Fz7CRD-Fc, the S/N amounted to 28.7 and the ELISA is recorded as 2.41.
On to “AFDCLGQCGRCDFHKLQCIWSNRNYPYCNSSCTR (disulfide (positions not given here)) [AVR9 3]”, for which, in the test on Notch2NRR, the S/N is recorded as 47.3 and the ELISA turned out to be 3.31.
In the case of “GCTLYMYLCKQDSDCLAGWMFHHCG [Fz7CRD-Fc EET I-II 26]”, in the test with Fz7CRD-Fc, the S/N came out at 28.9 and the ELISA worked out at 1.79.
The matching figures for “GPTQSKYGVCGGIGYSGPTVCASGTTCQVLYPGYSLCLPGAS (also: bicyclic or more (positions not given here)) [Fz7CRD-Fc CBD 72]”: 37.9 and 2.80.
Turning to “GPTQSVGGNCGGIGYSGPTVCASGTTCQVLSPNFSICLPGAS (also: bicyclic or more (positions not given here)) [PCSK9dCRD CBD 49]”, in the test on PCSK9ΔCRD (PCSK9dCRD), the S/N amounted to 37.1 and the ELISA was 2.38.
Regarding “AFDCLGQCGRCDFHKLQCVFRSWQHYMYCNSSCTR (also: bicyclic or more (positions not given here)) [PCSK9dCRD AVR9 39]”, in the test with PCSK9ΔCRD (PCSK9dCRD), the S/N was 9.1 and the ELISA stood at 2.46.
Turning to “AFDCLGQCGRCDFHKLQCVWGNRNSSYCNSSCTR (disulfide (positions not given here)) [AVR9 6]”, in the test with Notch2NRR, the S/N is recorded as 35.2 and the ELISA was 3.28.
Turning to “AFDCLGQCGRCDFHKLQCVHSNRNSFYCNSSCTR (disulfide (positions not given here)) [AVR9 7]”, in the test on Notch2NRR, the S/N was determined as 43.6 and the ELISA was 3.23.
For the sequence “GPTQSWFGQCGGIGYSGPTVCASGTTCQVLVPDMSFCLPGAS (also: bicyclic or more (positions not given here)) [Fz7CRD-Fc CBD 87]”, in the test on Fz7CRD-Fc, the S/N is 32.0 and the ELISA came to 2.66.
Regarding “AFDCLGQCGRCDFHKLQCVWSNRNSPYCNSSCTR (disulfide (positions not given here)) [AVR9 2]”, in the test on Notch2NRR, the S/N turned out to be 44.7 and the ELISA was determined as 3.32.
For “GPTQSHYGQCGGFGYWGMRHCSGTTCQWQHLPSQ CLPGAS (disulfide) [CBD 3]”, in that order: 36.6 and 3.00.
Turning to “GCGWLPELKLWCKQDSDCLAGCVCEDMIDCG (also: bicyclic or more (positions not given here)) [Fz7CRD-Fc EET I-II 38]”, in the test on Fz7CRD-Fc, the S/N is listed as 15.1 and the ELISA amounted to 1.32.
The matching figures for “AFDCLGQCGRCDFHKLQCVLVEPSGWYQVISWKYCNSSCTR (also: bicyclic or more (positions not given here)) [Fz7CRD-Fc AVR9 2]”: 5.0 and 0.29.
For “GPTQSHYGQCGGQGYWGMRHCSGTTCQWGAKGPSQCLPGAS (disulfide (positions not given here)) [CBD 4]”, in the test with Notch2NRR, the S/N was determined as 33.1 and the ELISA is reported as 3.68.
For the sequence “GCNGQRRPWGRWCKQDSDCLAGCVCGPNGFCG (disulfide (positions not given here)) [N2N-EET-33-P1]”, in the test with Notch2NRR, the S/N came out at 11.9 and the ELISA is listed as 2.39.
With “AFDCLGQCGRCDFHKLQCVWSNRNSLYCNSSCTR (disulfide (positions not given here)) [AVR9 1]”, in the test with Notch2NRR, the S/N is on record as 2.0 and the ELISA is 3.42.
Take “GPTQSIWGECGGIGYSGPTVCASGTTCQVLTPFYSFCLPGAS (also: bicyclic or more (positions not given here)) [Fz7CRD-Fc CBD 14]”: in the test with Fz7CRD-Fc, the S/N was 15.7 and the ELISA stood at 1.18.
Take “AFDCLGQCGRCDFHKLQCVSSNRNTPYCNSSCTR (disulfide (positions not given here)) [AVR9 5]”: in the test on Notch2NRR, the S/N is 45.8 and the ELISA stood at 3.31.
“GPTQSAGGWCGGIGYSGPTVCASGTTCQVLTPMESICLPGAS (also: bicyclic or more (positions not given here)) [Fz7CRD-Fc CBD 29]”: in the test with Fz7CRD-Fc, the S/N amounted to 5.7 and the ELISA turned out to be 0.36.
On to “GPTQSHYGQCGGAGYWGRWICSGTTCQPLPQSKSQCLPGAS (disulfide (positions not given here)) [CBD 1]”, for which, in the test with Notch2NRR, the S/N is reported as 38.2 and the ELISA came out at 3.79.
On to “GPTQSMFGECGGIGYSGPTVCASGTTCQVLSPFYSFCLPGAS (also: bicyclic or more (positions not given here)) [Fz7CRD-Fc CBD 47]”, for which, in the test with Fz7CRD-Fc, the S/N was 30.4 and the ELISA amounted to 2.59.
For “GPTQSLWGECGGIGYSGPTVCASGTTCQVLSPEYSFCLPGAS (also: bicyclic or more (positions not given here)) [Fz7CRD-Fc CBD 18]”, in that order: 16.4 and 1.75.
As for “GCGWLPELKLWCKQDSDCLAGCVCEDMIDCG (also: bicyclic or more (positions not given here)) [Fz7CRD-Fc EET I-II 42]”, in the test on Fz7CRD-Fc, the S/N stood at 36.2 and the ELISA was found to be 2.79.
In the case of “GPTQSHYGQCGGTGYWGMRNCSGTTCQRFAPQNSQCLPGAS (disulfide (positions not given here)) [CBD 5]”, in the test on Notch2NRR, the S/N is given as 47.2 and the ELISA was 3.59.
Regarding “GCTLMRTRCKQDSDCLAGCVCEHIYWCG (disulfide (positions not given here)) [N2N-EET-n19]”, in the test with Notch2NRR, the S/N is listed as 12.8 and the ELISA stood at 3.16.
The matching figures for “AFDCLGQCGRCDFHKLQCVPYSWTYKQYCNSSCTR (disulfide (positions not given here)) [AVR9 9]”: 35.7 and 2.57.
Take “AFDCLGQCGRCDFHKLQCVWSNRHSPYCNSSCTR (disulfide (positions not given here)) [AVR9 4]”: in the test on Notch2NRR, the S/N was determined as 39.3 and the ELISA is 3.31.
In the case of “AFDCLGQCGRCDFHKLQCVVGWASMRNYCNSSCTR (disulfide (positions not given here)) [AVR9 8]”, in the test on Notch2NRR, the S/N is given as 42.0 and the ELISA is on record as 3.14.
On to “GCKLMRQRCKQDSDCLAGCVCTQQWWCG (disulfide (positions not given here)) [N2N-EET-94]”, for which, in the test on Notch2NRR, the S/N is 36.3 and the ELISA was 3.52.
On to “GPTQSHYGQCGGWGYTGWYQCASGTTCQGPRSRLSQCLPGAS (also: bicyclic or more (positions not given here)) [HtrA1_CBDwt46]”, for which, in the test on HtrA1, the S/N stood at 25.9.
For “GCGYWYITWFCKQDSDCLAGCVCGPNGFCG (also: bicyclic or more (positions not given here)) [Fz7CRD-Fc EET I-II 30]”, in the test with Fz7CRD-Fc, the S/N is listed as 3.0 and the ELISA came to 2.64.
With “GPTQSMWGECGGIGYSGPTVCASGTTCQVLSPFYSFCLPGAS (also: bicyclic or more (positions not given here)) [Fz7CRD-Fc CBD 56]”, in the test on Fz7CRD-Fc, the S/N was 3.7 and the ELISA came to 0.27.
With “WIPCISAALGCSCKNKVCYALNNMVQFLYIHHCGESCV (also: bicyclic or more (positions not given here)) [HtrA1 CirculinA 66]”, the S/N in the test on HtrA1 is on record as 12.7.
For “GCTLYMYLCKQDSDCLAGWMFHHCG [Fz7CRD-Fc EET I-II 55]”, in the test on Fz7CRD-Fc, the S/N is given as 29.3 and the ELISA is reported as 2.81.
